In patent US7138361B2, “Herbicidal heterocycles” (E. I. du Pont de Nemours and Company, priority 2000, dated 2006):

How the values were obtained:
Test in all cases: Test C postemergence
Format in all cases: in vivo
soybean (Glycine max) = test system: soybean (Glycine max)
Procedure, shortened: (§1)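 Response scores (0 no effect to 100 complete control) came from visual comparison with untreated controls 12 to 14 days after treatment. Preemergence application was made to seeded soil; postemergence, to plants at the 1- to 4-leaf stage.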

[1] = test system: common ragweed (Ambrosia elatior)
Procedure, shortened: as §1

[2] = test system: velvetleaf (Abutilon theophrasti)
Procedure, shortened: as §1

[3] = test system: lambsquarters (Chenopodium album)
Procedure, shortened: as §1

[4] = test system: giant foxtail (Setaria faberii)
Procedure, shortened: as §1

[5] = test system: morningglory (Ipomoea hederacea)
Procedure, shortened: as §1

[6] = test system: goosegrass (Eleusine indica)
Procedure, shortened: as §1

[7] = test system: yellow nutsedge (Cyperus esculentus)
Procedure, shortened: as §1

[8] = test system: bermudagrass (Cynodon dactylon)
Procedure, shortened: as §1

[9] = test system: pigweed (Amaranthus retroflexus)
Procedure, shortened: as §1

[10] = test system: chickweed (Stellaria media)
Procedure, shortened: as §1

[11] = test system: johnsongrass (Sorghum halepense)
Procedure, shortened: as §1

kochia (Kochia scoparia) = test system: kochia (Kochia scoparia)
Procedure, shortened: as §1

[12] = test system: woolly cupgrass (Eriochloa villosa)
Procedure, shortened: as §1

[13] = test system: Surinam grass (Brachiaria decumbens)
Procedure, shortened: as §1

[14] = Rate 125 g/ha, scale 0 to 100, 0 no effect, 100 complete control
[15] = Rate 250 g/ha, scale 0 to 100 (0 no effect, 100 complete control)
[16] = Rate 500 g/ha, scale 0 to 100 (0 no effect, 100 complete control)
[17] = Rate 62 g/ha, scale 0 to 100, 0 no effect, 100 complete control

CCC(C)c1ccn(C2CCN(c3ccc(C)c(OC)c3)C2=O)n1 (centres unmarked) [Compound 80]
50: Plant response rating, Soybean (soybean (Glycine max); Rate 62 g/ha, scale 0 to 100) | Plant response rating, Ragweed, Common [1, 15] | Plant response rating, Morningglory ([5]; Rate 62 g/ha, scale 0 to 100) | Plant response rating, Kochia (kochia (Kochia scoparia); [16])
80: Plant response rating, Ragweed, Common [1, 16]
100: Plant response rating, Morningglory [5, 16]
20: Plant response rating, Velvetleaf ([2]; Rate 62 g/ha, scale 0 to 100) | Plant response rating, Velvetleaf [2, 14] | Plant response rating, Velvetleaf [2, 15] | Plant response rating, Velvetleaf [2, 16] | Plant response rating, Foxtail, Giant [4, 16] | Plant response rating, Nutsedge [7, 14] | Plant response rating, Nutsedge [7, 15] | Plant response rating, Nutsedge [7, 16] | Plant response rating, Bermudagrass [8, 16] | Plant response rating, Pigweed ([9]; Rate 62 g/ha, scale 0 to 100) | Plant response rating, Chickweed ([10]; Rate 62 g/ha, scale 0 to 100) | Plant response rating, Chickweed [10, 14]
90: Plant response rating, Soybean (soybean (Glycine max); [16]) | Plant response rating, Lambsquarters [3, 16]
40: Plant response rating, Pigweed [9, 14]
60: Plant response rating, Soybean (soybean (Glycine max); [14]) | Plant response rating, Morningglory [5, 14] | Plant response rating, Morningglory [5, 15] | Plant response rating, Chickweed [10, 16]
10: Plant response rating, Lambsquarters ([3]; Rate 62 g/ha, scale 0 to 100)
0: Plant response rating, Ragweed, Common ([1]; Rate 62 g/ha, scale 0 to 100) | Plant response rating, Ragweed, Common [1, 14] | Plant response rating, Foxtail, Giant ([4]; Rate 62 g/ha, scale 0 to 100) | Plant response rating, Foxtail, Giant [4, 14] | Plant response rating, Foxtail, Giant [4, 15] | Plant response rating, Goosegrass ([6]; Rate 62 g/ha, scale 0 to 100) | Plant response rating, Goosegrass [6, 14] | Plant response rating, Goosegrass [6, 15] | Plant response rating, Goosegrass [6, 16] | Plant response rating, Nutsedge ([7]; Rate 62 g/ha, scale 0 to 100) | Plant response rating, Bermudagrass ([8]; Rate 62 g/ha, scale 0 to 100) | Plant response rating, Bermudagrass [8, 14] | Plant response rating, Bermudagrass [8, 15] | Plant response rating, Johnsongrass ([11]; Rate 62 g/ha, scale 0 to 100) | Plant response rating, Johnsongrass [11, 14] | Plant response rating, Johnsongrass [11, 15] | Plant response rating, Johnsongrass [11, 16] | Plant response rating, Kochia (kochia (Kochia scoparia); Rate 62 g/ha, scale 0 to 100) | Plant response rating, Kochia (kochia (Kochia scoparia); [14]) | Plant response rating, Cupgrass, Woolly ([12]; Rate 62 g/ha, scale 0 to 100) | Plant response rating, Cupgrass, Woolly [12, 14] | Plant response rating, Cupgrass, Woolly [12, 15] | Plant response rating, Cupgrass, Woolly [12, 16] | Plant response rating, Surinam grass ([13]; Rate 62 g/ha, scale 0 to 100) | Plant response rating, Surinam grass [13, 14] | Plant response rating, Surinam grass [13, 15] | Plant response rating, Surinam grass [13, 16]
70: Plant response rating, Soybean (soybean (Glycine max); [15]) | Plant response rating, Pigweed [9, 16]
30: Plant response rating, Chickweed [10, 15] | Plant response rating, Kochia (kochia (Kochia scoparia); [15])

CCC(CC)c1ccn(C2SCN(c3cccc(C(F)(F)F)c3)C2=O)n1 (centres unmarked) [Compound 25]
30: Plant response rating, Soybean (soybean (Glycine max); [15]) | Plant response rating, Soybean (soybean (Glycine max); [16]) | Plant response rating, Ragweed, Common [1, 15] | Plant response rating, Foxtail, Giant [4, 14]
20: Plant response rating, Soybean (soybean (Glycine max); [14]) | Plant response rating, Goosegrass [6, 14] | Plant response rating, Johnsongrass [11, 14]
100: Plant response rating, Lambsquarters [3, 15] | Plant response rating, Lambsquarters [3, 16] | Plant response rating, Morningglory [5, 16] | Plant response rating, Pigweed [9, 15] | Plant response rating, Pigweed [9, 16]
0: Plant response rating, Ragweed, Common [1, 14] | Plant response rating, Nutsedge [7, 14] | Plant response rating, Nutsedge [7, 15] | Plant response rating, Nutsedge [7, 16] | Plant response rating, Surinam grass [13, 17] | Plant response rating, Surinam grass [13, 14] | Plant response rating, Surinam grass [13, 15] | Plant response rating, Surinam grass [13, 16]
80: Plant response rating, Foxtail, Giant [4, 15] | Plant response rating, Morningglory [5, 15] | Plant response rating, Chickweed [10, 15]
40: Plant response rating, Ragweed, Common [1, 16] | Plant response rating, Velvetleaf [2, 14] | Plant response rating, Cupgrass, Woolly [12, 14]
60: Plant response rating, Goosegrass [6, 15] | Plant response rating, Goosegrass [6, 16] | Plant response rating, Bermudagrass [8, 17] | Plant response rating, Chickweed [10, 17] | Plant response rating, Cupgrass, Woolly [12, 15]
90: Plant response rating, Lambsquarters [3, 14] | Plant response rating, Foxtail, Giant [4, 16] | Plant response rating, Bermudagrass [8, 15] | Plant response rating, Bermudagrass [8, 16] | Plant response rating, Pigweed [9, 14] | Plant response rating, Chickweed [10, 16] | Plant response rating, Johnsongrass [11, 16]
50: Plant response rating, Velvetleaf [2, 15] | Plant response rating, Velvetleaf [2, 16] | Plant response rating, Johnsongrass [11, 15]
70: Plant response rating, Bermudagrass [8, 14] | Plant response rating, Chickweed [10, 14] | Plant response rating, Kochia (kochia (Kochia scoparia); [14]) | Plant response rating, Kochia (kochia (Kochia scoparia); [15]) | Plant response rating, Kochia (kochia (Kochia scoparia); [16]) | Plant response rating, Cupgrass, Woolly [12, 16]

CCOc1cc(N2CCC(n3ccc(C(C)(C)C)n3)C2=O)ccc1C (centres unmarked) [Compound 106]
60: Plant response rating, Velvetleaf ([2]; Rate 62 g/ha, scale 0 to 100) | Plant response rating, Velvetleaf [2, 14]
20: Plant response rating, Bermudagrass [8, 15]
80: Plant response rating, Soybean (soybean (Glycine max); [15]) | Plant response rating, Lambsquarters ([3]; Rate 31 g/ha, scale 0 to 100) | Plant response rating, Lambsquarters ([3]; Rate 62 g/ha, scale 0 to 100) | Plant response rating, Lambsquarters [3, 14] | Plant response rating, Pigweed [9, 14] | Plant response rating, Pigweed [9, 15]
30: Plant response rating, Velvetleaf ([2]; Rate 31 g/ha, scale 0 to 100) | Plant response rating, Cupgrass, Woolly [12, 14]
70: Plant response rating, Soybean (soybean (Glycine max); Rate 31 g/ha, scale 0 to 100) | Plant response rating, Soybean (soybean (Glycine max); Rate 62 g/ha, scale 0 to 100) | Plant response rating, Soybean (soybean (Glycine max); [14]) | Plant response rating, Velvetleaf [2, 15] | Plant response rating, Pigweed ([9]; Rate 31 g/ha, scale 0 to 100) | Plant response rating, Pigweed ([9]; Rate 62 g/ha, scale 0 to 100) | Plant response rating, Kochia (kochia (Kochia scoparia); Rate 31 g/ha, scale 0 to 100) | Plant response rating, Kochia (kochia (Kochia scoparia); Rate 62 g/ha, scale 0 to 100)
90: Plant response rating, Ragweed, Common [1, 14] | Plant response rating, Morningglory ([5]; Rate 31 g/ha, scale 0 to 100) | Plant response rating, Morningglory ([5]; Rate 62 g/ha, scale 0 to 100) | Plant response rating, Morningglory [5, 14] | Plant response rating, Kochia (kochia (Kochia scoparia); [14])
40: Plant response rating, Cupgrass, Woolly [12, 15]
10: Plant response rating, Foxtail, Giant [4, 15] | Plant response rating, Goosegrass [6, 15] | Plant response rating, Cupgrass, Woolly ([12]; Rate 62 g/ha, scale 0 to 100)
100: Plant response rating, Lambsquarters [3, 15] | Plant response rating, Morningglory [5, 15] | Plant response rating, Kochia (kochia (Kochia scoparia); [15])
0: Plant response rating, Ragweed, Common ([1]; Rate 62 g/ha, scale 0 to 100) | Plant response rating, Foxtail, Giant ([4]; Rate 31 g/ha, scale 0 to 100) | Plant response rating, Foxtail, Giant ([4]; Rate 62 g/ha, scale 0 to 100) | Plant response rating, Foxtail, Giant [4, 14] | Plant response rating, Goosegrass ([6]; Rate 31 g/ha, scale 0 to 100) | Plant response rating, Goosegrass ([6]; Rate 62 g/ha, scale 0 to 100) | Plant response rating, Goosegrass [6, 14] | Plant response rating, Nutsedge ([7]; Rate 31 g/ha, scale 0 to 100) | Plant response rating, Nutsedge ([7]; Rate 62 g/ha, scale 0 to 100) | Plant response rating, Nutsedge [7, 14] | Plant response rating, Nutsedge [7, 15] | Plant response rating, Bermudagrass ([8]; Rate 31 g/ha, scale 0 to 100) | Plant response rating, Bermudagrass ([8]; Rate 62 g/ha, scale 0 to 100) | Plant response rating, Bermudagrass [8, 14] | Plant response rating, Johnsongrass ([11]; Rate 31 g/ha, scale 0 to 100) | Plant response rating, Johnsongrass ([11]; Rate 62 g/ha, scale 0 to 100) | Plant response rating, Johnsongrass [11, 14] | Plant response rating, Johnsongrass [11, 15] | Plant response rating, Cupgrass, Woolly ([12]; Rate 31 g/ha, scale 0 to 100) | Plant response rating, Surinam grass ([13]; Rate 31 g/ha, scale 0 to 100) | Plant response rating, Surinam grass ([13]; Rate 62 g/ha, scale 0 to 100) | Plant response rating, Surinam grass [13, 14] | Plant response rating, Surinam grass [13, 15]
